Source: patent US20190290729A1, “PHARMACEUTICAL ASSOCIATION OF GROWTH FACTOR RECEPTOR AGONIST AND ADHESION PROTEIN INHIBITOR FOR CONVERTING A NEOPLASTIC CELL INTO A NON-NEOPLASTIC CELL AND USES THEREOF” (HISTIDE AG, priority 2015, published 2019)
Where no end group is shown, it is not given here.

Key:
[1] = test system: human rhabdosarcoma cells; assay: p53 quantification, same procedure, rhabdosarcoma cells; format: cell-based; parameters: P53: unit not given here; details: for P53: Table 9, in association with SiRNA Integrin alpha 3+RGDSPC+SiRNA Integrin beta 1+SiRNA Syndecan 1 (SEQ ID NO: 31, 32, 164 to 187)
Method: (§1) The following starting materials and reagents were used: • Type-I collagen sponge was obtained from Sigma®. • PBS 1× was obtained from Gibco®. • MilliQ water: is water characterised in terms of resistivity (typically 18.2 MΩ·cm at 25° C.). • Low glucose Dulbecco's Modified Eagle Medium (DMEM) was obtained from Invitrogen® • Minimum Essential Medium Eagle without ascorbic acid (αMEM) was obtained from Invitrogen®. • All of the cell culture experiments were carried out without any serum in the medium for the first 8 hours of culture. • Osteosarcoma cells: MG63 cells were obtained from ATCC®. These cells were cultured in DMEM (Eagle's Minimum Essential Medium) medium supplemented with 10% fetal calf serum (FCS) and 1% penicillin/streptomycin. All cells were used at a low passage number (passage 10), were subconfluently cultured and were seeded at 10^4 cells/cm^2 for the purpose of the experiments. • Chondrosarcoma cells Hs819.T cells were obtained from ATCC®. These cells were cultured in DMEM (Eagle's Minimum Essential Medium) medium supplemented with 10% fetal calf serum (FCS) and 1% penicillin/streptomycin. All cells were used at a low passage number (passage 10), were subconfluently cultured and were seeded at 10^4 cells/cm^2 for the purpose of the experiments. • Rhabdomyosarcoma cells: A-673 cells were obtained from ATCC®. These cells were cultured in DMEM (Eagle's Minimum Essential Medium) medium supplemented with 10% fetal calf serum (FCS) and 1% penicillin/streptomycin. All cells were used at a low passage number (passage 10), were subconfluently cultured and were seeded at 10^4 cells/cm^2 for the purpose of the experiments. • Adenocarcinoma cells: HCC4006 cells were obtained from ATCC®. These cells were cultured in RPMI-1640 medium (obtained from ATCC®) supplemented with 10% fetal calf serum (FCS) and 1% penicillin/streptomycin. All cells were used at a low passage number (passage 10), were subconfluently cultured and were seeded at 10^4 cells/cm^2 for the purpose of the experiments. • CMFDA is a Cell Tracker Green obtained from Invitrogen®. • DAPI was obtained from Sigma®. • Fetal bovine serum (FBS) was obtained from Gibco®. • Penicillin/streptomycin was obtained from Invitrogen®. • The AlamarBlue® assay was obtained from Molecular Probes®. • Anti phospho-p53 antibody was obtained from Santa Cruz Biotechnology®, • Anti pRB antibody was obtained from Santa Cruz Biotechnology®, • Monoclonal anti-integrin (extracellular domain) αv, α5, α3, α4, β1, β3, β5 and β9 antibodies were obtained from Santa Cruz Biotechnology®, • Cell cytoskeletal filamentous actin (F-actin) was visualized by Alexa Fluor® 488 phalloidin Sigma® labeling. • Monoclonal anti-vinculin antibody (clone hVIN-1, produced in mouse) was obtained from Sigma®.
(§2) • All of the peptides were synthetized using conventional solution and/or solid phase peptide synthesis methods. • All of the experiments were performed with a concentration of 400 ng/mL of GFR-binding compound(s) as defined herein. • All cell culture experiments were performed with cultures on plastic coated with type-I collagen in order to mimic the physiological conditions of the human body. • The compositions of pharmaceutical compositions used in the examples below are summarized in the following table:
(§3) The cells were first fixed for 20 min with 4% paraformaldehyde/PBS at 4° C. After fixation, the cells were permeabilized in PBS containing 1% Triton X-100 for 15 min. Protein immunofluorescent visualization was performed by first treating the cells with 1% (v/v) specific monoclonal antibodies for 1 hour at 37° C. Then the samples were incubated with Alexa Fluor® 568 or 647 (F(ab′)2 fragment of IgG(H+L)) during 30 min at room temperature. The cell nuclei were counterstained in 20 ng/mL DAPI for 10 min at room temperature.
(§4) For this type of quantification the freeware image analysis ImageJ® software was used. […]

[2] = test system: human rhabdosarcoma cells; assay: pRB quantification, same procedure, rhabdosarcoma cells; format: cell-based; details: for pRB: Table 9, in association with SiRNA Integrin alpha 3+RGDSPC+SiRNA Integrin beta 1+SiRNA Syndecan 1 (SEQ ID NO: 31, 32, 164 to 187)
Method: as §1, §2, §3, §4

[3] = Table 5, cyclic GFR-binding peptide in association with SiRNA Integrin alpha 3+RGDSPC+SiRNA Integrin beta 1+SiRNA Syndecan 1, 400 ng/mL
[4] = Table 8, in association with SiRNA Integrin alpha 3, v, 4 and SiRNA Integrin beta 1

Sequence	P53 [1]	pRB [2]	P53 (%) [1, 4] [%]	pRB (%) [2, 4] [%]	other results
GTPGPAPTQLSPISVLYKDDSSNVILKYHY (Non-cyclic GFR-binding peptide) [SEQ ID NO: 31]	34	5	–	–	–
GTPGPRNVQCRPTQVQLSAISTLYLEIVRKKPLKNYQTLEDH (Non-cyclic GFR-binding peptide) [SEQ ID NO: 172]	33	12	–	–	–
CAAPASSSVPARLSPISILYIDAANNVVYKQYEDMVVE (Non-cyclic GFR-binding peptide) [SEQ ID NO: 182]	41	8	–	–	–
PTSSAPTDLRSVKMAKVEIVRKKPIFKEVQVDMVVKASGDKGVVTY (not fully specified; also: cyclic peptide) [SEQ ID NO: 38221]	–	–	–	–	P53 (%) [1, 3]: 48%; pRB (%) [2, 3]: 11%
VPQAAEPLPMLYYDKGVVTYEQLSNAAVRS (Non-cyclic GFR-binding peptide) [SEQ ID NO: 133]	–	–	42	7	–
CVPTEESNITMQIMRIKPHQGQHIGEMSFL (Non-cyclic GFR-binding peptide) [SEQ ID NO: 177]	43	8	–	–	–
KASSVPQEERPVQMRKIGGGGGGGKKATVMIVRSSKSSDDMGVPT (not fully specified; also: cyclic, mode of cyclisation not given here) [SEQ ID NO: 38219]	–	–	–	–	P53 (%) [1, 3]: 38%; pRB (%) [2, 3]: 15%
GTPGPKASSVPTELSPISTLYKDENEKVVLKYHYDMVVEGSGSR (Non-cyclic GFR-binding peptide) [SEQ ID NO: 167]	41	11	–	–	–
VPTAASAISILYLDAANNVVLKNYQAAVVE (Non-cyclic GFR-binding peptide) [SEQ ID NO: 123]	–	–	32	11	–
VPQQQEPLTTLYYDEYDKVVEQLSNQQVKS (Non-cyclic GFR-binding peptide) [SEQ ID NO: 134]	–	–	50	8	–
VPTSSSPISTLYIDKGVVTYLKYHYSSVAE (Non-cyclic GFR-binding peptide) [SEQ ID NO: 128]	–	–	36	21	–
VPEAASSLSMLFFEIVRKKPIFLKVYPAATVE (Non-cyclic GFR-binding peptide) [SEQ ID NO: 124]	–	–	37	12	–
SRVAARSVKMAKVGGGGGGGKEVQVAAEEH (Non-cyclic GFR-binding peptide) [SEQ ID NO: 136]	–	–	38	10	–
GTPGPASSAVSQELSAISMLYLGGGLKNYQDM (Non-cyclic GFR-binding peptide) [SEQ ID NO: 32]	46	7	–	–	–
WWFWGKASSVPTELSPISTLYKDENEKVVLKYHYDMVVEGSGSR (Non-cyclic GFR-binding peptide) [SEQ ID NO: 170]	44	7	–	–	–
KASSSRVKMSNITVQIMRIKPHQGQHIGEMSVVEEHASGSHDKGVVTY (not fully specified; also: cyclic, mode of cyclisation not given here) [SEQ ID NO: 38222]	–	–	–	–	P53 (%) [1, 3]: 52%; pRB (%) [2, 3]: 15%
GTPGPAPTKLSAISMLYLDSSNNVILRKHR (Non-cyclic GFR-binding peptide) [SEQ ID NO: 165]	42	9	–	–	–
APVAAKPLSMLYVDKGVVTYDHHKDAAVEE (Non-cyclic GFR-binding peptide) [SEQ ID NO: 132]	–	–	38	9	–

Sequence	P53 [1]	pRB [2]	P53 (%) [1, 4] [%]	pRB (%) [2, 4] [%]	other results
VPTMMSNITTQIMRIKPHQGQHIGEMSMMQHN (Non-cyclic GFR-binding peptide) [SEQ ID NO: 135]	–	–	48	16	–
CPARLSPISLLYIDAANNVVYKQYEDM (Non-cyclic GFR-binding peptide) [SEQ ID NO: 184]	39	11	–	–	–
APTLLNAISMLYFNDKQQIILKKYRLLVVR (Non-cyclic GFR-binding peptide) [SEQ ID NO: 126]	–	–	41	8	–
CVPQRLSPISILYIDAANNVVYKQYE (Non-cyclic GFR-binding peptide) [SEQ ID NO: 186]	38	12	–	–	–
CAAPASSSVPARLSPISLLYIDAANNVVYKQYEDM (Non-cyclic GFR-binding peptide) [SEQ ID NO: 183]	44	13	–	–	–
VPTGGEPLTTLYYNDKQQIIEQLSNGGEHS (Non-cyclic GFR-binding peptide) [SEQ ID NO: 138]	–	–	45	20	–
VPTAAEPLTMLYYEIVRKKPIFEQLSNMVEHSDDMGVPT (also: cyclic peptide) [SEQ ID NO: 38223]	–	–	–	–	P53 (%) [1, 3]: 44%; pRB (%) [2, 3]: 17%
EPSSVSQAAEPLPIVYYRIKPHQGQHEQLSNMIVKSSKSSDDMGVPT (also: cyclic peptide, ring closure not given here) [SEQ ID NO: 38226]	–	–	–	–	P53 (%) [1, 3]: 29%; pRB (%) [2, 3]: 12%
VPTAAEPISMLYLDEYDKVVKFKYEAAAVS (Non-cyclic GFR-binding peptide) [SEQ ID NO: 129]	–	–	42	20	–
CTVPKPSSAPTQLSPISILYIDAANNVVYKQYEDMVVRA (Non-cyclic GFR-binding peptide) [SEQ ID NO: 187]	42	9	–	–	–
TPTSSSPINTLYFDDMGVPTYGKIPSSVVD (Non-cyclic GFR-binding peptide) [SEQ ID NO: 130]	–	–	48	15	–
VPTVVSPISMLYIDDMGVPTYKQYEVVVVE (Non-cyclic GFR-binding peptide) [SEQ ID NO: 131]	–	–	36	12	–
VSQAARPVQTRKIDDMGVPTKKATVAAVKSDDMGVPT (also: cyclic peptide) [SEQ ID NO: 38220]	–	–	–	–	P53 (%) [1, 3]: 42%; pRB (%) [2, 3]: 9%
CVPTEERSVKVAKVRIKPHQGQHKEVQV (Non-cyclic GFR-binding peptide) [SEQ ID NO: 176]	33	7	–	–	–
APVKMEPLPTVYYDDMGVPTEQLSNDMVEESGSLDDMGVPT (also: cyclic, ring not given here) [SEQ ID NO: 38225]	–	–	–	–	P53 (%) [1, 3]: 49%; pRB (%) [2, 3]: 9%
WWFWGASSAVSQELSAISMLYLGGGLKNYQDMQHN (Non-cyclic GFR-binding peptide) [SEQ ID NO: 171]	47	8	–	–	–
VPTVVSAISTLYLRIKPHQGQHLKNYQVVVVE (Non-cyclic GFR-binding peptide) [SEQ ID NO: 125]	–	–	42	9	–
